The record followed here is ChEMBL document CHEMBL3351412, “Design, synthesis and biological evaluation of β-boswellic acid based HDAC inhibitors as inducers of cancer cell death” (Bioorg Med Chem Lett, 2014).

By IC50 is commonly meant the concentration needed to halve the response being measured. Lower therefore signals greater potency in that assay. As usually defined, the inhibition is the change of the read-out against control, counted positive when it falls. The low end stands for a weak effect, the high end for a strong effect.

Each structure is given as a SMILES string.

Test [1] can be described thus: Cytotoxicity against human FR2 cells. Type of test: cell-based.
For another test, the system named is MCF7. In words: Cytotoxicity against human MCF7 cells. Type of test: functional, cell-based.
Another test has as its system A549. The test can be described thus: Cytotoxicity against human A549 cells. The format is functional, cell-based.
Test [2] can be described thus: Cytotoxicity against human MIAPaCa2 cells. The note with it: MIA PaCa-2. Type of test: functional, cell-based.
The target in a further test is Histone deacetylase. The test can be described thus: Inhibition of HDAC (unknown origin). The format is protein assay, Homo sapiens.
Test [3] concerns the target T1, Histone deacetylase (Homo sapiens) (UniProt Q13547+O15379+Q9UBN7+Q92769+Q9UQL6+Q8WUI4+Q9BY41+Q96DB2+P56524+Q9UKV0+Q969S8). In words: Inhibition of HDAC (unknown origin) at 30 uM. Type of test: protein assay.
Test [4] can be described thus: Cytotoxicity against human HL60 cells. The format is functional, cell-based. The note with it: HL-60.
Test [5] can be described thus: Cytotoxicity against human HCT116 cells. The format is functional, cell-based. Conditions: HCT-116.
Test [6] concerns the target T1, Histone deacetylase (Homo sapiens). The test can be described thus: Inhibition of HDAC (unknown origin) at 50 uM. The format is protein assay.

For `C[C@H]1[C@H](C)CC[C@]2(C)CC[C@]3(C)C(=CC(=O)[C@@H]4[C@@]5(C)CC[C@@H](O)[C@](C)(NC(=O)CCCCCCC(=O)NO)[C@@H]5CC[C@]43C)[C@H]12`, the IC50 in [1] was 4.3 µM; in the test on MCF7 it was 4 µM; in the test with A549 it was 6.9 µM; in test [2] it was 8.7 µM; against Histone deacetylase, greater than 50 µM; in test [4] it was 3 µM. Inhibition in [5] was half-maximal at 5.2 µM (IC50). In addition, the inhibition was found to be 12% in [3] and 39% in test [6].
As to `C[C@H]1[C@H](C)CC[C@]2(C)CC[C@]3(C)C(=CC[C@@H]4[C@@]5(C)CC[C@@H](O)[C@](C)(NC(=O)CCCCCCCC(=O)NO)[C@@H]5CC[C@]43C)[C@H]12`, the IC50 was greater than 20 µM in test [1]; 6.4 µM with MCF7; 15 µM in the test on A549; 11.9 µM in test [2]; greater than 50 µM on Histone deacetylase; 12.4 µM in [4]. This molecule also had an IC50 in [5] of 11.8 µM. Moreover, the inhibition in test [3] is 34%; in test [6], 45%.
`C[C@H]1[C@H](C)CC[C@]2(C)CC[C@]3(C)C(=CC[C@@H]4[C@@]5(C)CC[C@@H](O)[C@](C)(NC(=O)CCCC(=O)NO)[C@@H]5CC[C@]43C)[C@H]12`: the IC50 was greater than 20 µM in [1]; 3.6 µM in the test on MCF7; greater than 20 µM in the test on A549; 8.8 µM in test [2]; 34 µM against Histone deacetylase; 11.7 µM in [4]. The molecule also returned an IC50 in test [5] greater than 20 µM. Moreover, the inhibition in test [3] is 46%; in test [6], 54%.
On to `C[C@H]1[C@H](C)CC[C@]2(C)CC[C@]3(C)C(=CC[C@@H]4[C@@]5(C)CC[C@@H](O)[C@](C)(NC(=O)CCCCC(=O)O)[C@@H]5CC[C@]43C)[C@H]12`, for which the IC50 (in test [1]; in the test with MCF7; in the test on A549; in test [2]; in test [4]; in [5]) was greater than 20 µM in each case.
Take `C[C@H]1[C@H](C)CC[C@]2(C)CC[C@]3(C)C(=CC(=O)[C@@H]4[C@@]5(C)CC[C@@H](O)[C@](C)(NC(=O)CCCCCCCC(=O)NO)[C@@H]5CC[C@]43C)[C@H]12`: the IC50 in [1] was greater than 20 µM; with MCF7, 11 µM; in the test with A549, greater than 20 µM; in test [2], greater than 20 µM; against Histone deacetylase, 48 µM; in [4], greater than 20 µM. The IC50 in test [5] came out at 12 µM. Also, the results for the inhibition in test [3] and in test [6] were 31% and 52%, respectively.
On to `C[C@H]1[C@H](C)CC[C@]2(C)CC[C@]3(C)C(=CC[C@@H]4[C@@]5(C)CC[C@@H](O)[C@](C)(NC(=O)CCCCC(=O)NO)[C@@H]5CC[C@]43C)[C@H]12`, for which the half-inhibitory concentration (IC50) in test [1] was greater than 20 µM; with MCF7 it was 4.4 µM; in the test on A549, greater than 20 µM; in test [2] it was 11.8 µM; in [4] it was greater than 20 µM; in test [5], greater than 20 µM.
As for `C[C@H]1[C@H](C)CC[C@]2(C)CC[C@]3(C)C(=CC(=O)[C@@H]4[C@@]5(C)CC[C@@H](O)[C@](C)(NC(=O)CCCCC(=O)NO)[C@@H]5CC[C@]43C)[C@H]12`, the concentration for half-maximal inhibition (IC50) was 7.2 µM in test [1]; greater than 20 µM in the test on MCF7; 3.1 µM in the test on A549; 13.1 µM in [2]; 42 µM on Histone deacetylase; 6.6 µM in [4]. In [5], this molecule came in with an IC50 greater than 20 µM. For the same molecule, the inhibition was determined as 37% in test [3] and 57% in test [6].
